Source: patent US20050208031A1, “Inhibition of calcium-independent phospholipases A2beta or A2gamma inhibit hormone-induced differentiation of 3T3-L1 preadipocytes” (priority 2003, published 2005)

Legend:
iPLA2 = test: Phospholipase A2 (iPLA2) activity assay in day 8 3T3-L1 cell homogenates with radiolabelled POPC; assay type: biochemical; details: 10 μM BEL, 3 min preincubation, day 8 cell homogenate, FIG. 3B
Description: FIG. 3. Activities of PLA2 in 3T3-L1 cells during differentiation and their inhibition by BELs. 3T3-L1 cells were cultured and induced to differentiation as described in “Test Procedures.” At indicated differentiation stages, cell homogenates were prepared as described in “Test Procedures.” Phospholipase A2 activity was assessed by incubating 3T3-L1 cell protein (100-200 μg) with radiolabelled 1-palmitoyl-2-[1-^14C]-oleoyl-sn-glycerol-3-phosphocholine (POPC) (50 mCi/mmol, 5 μM final concentration, introduced by ethanol injection (2 μL)) in assay buffer (final conditions: 100 mM Tris-HCl, 4 mM EGTA, pH=7.2) at 37° C. for 30 min in a final volume of 200 μL. Reactions were quenched by addition of butanol (100 μL). 30 microliters of the organic phase was spotted on a Whatman silica plate which was developed with a nonpolar acidic mobile phase (100 mL of 70/30/1 petroleum ether/ethyl ether/acetic acid). Spots corresponding to fatty acids were scrapped into scintillation vials and radioactivity was quantified by scintillation spectrometry as described previously. A, iPLA2 activities of 3T3-L1 cells during differentiation. B, iPLA2 activities of homogenates of day 8 3T3-L1 cells after incubation at room temperature for 3 minutes in the absence or presence of 10 μM of (R)-BEL, (S)-BEL or racemic BEL.
On the day of the test, the media of 3T3-L1 cells at different stages of differentiation were removed. The cells were washed briefly with PBS and detached by incubation in trypsin-EDTA (0.25% w/v) at 37° C. for […]. The cells were washed again with 5 volumes of CMRL-1066, transferred to a 50 mL Falcon centrifuge tube and centrifuged for 5 min at 1700 rpm at 4° C. […] Briefly, phospholipase A2 activity was assessed by incubating 3T3-L1 cell protein (100-200 μg) with radiolabelled phosphatidylcholine, L-α-palmitoyl-2-oleoyl [oleoyl-1-^14C] […] Spots corresponding to fatty acids were scrapped into scintillation vials and radioactivity was quantified by scintillation spectrometry as described previously^(32). […]

3T3-L1 cells = test: TAG accumulation during hormone-induced differentiation of 3T3-L1 cells (ESI/MS); assay type: cell-based; details: 5, 10 μM BEL for 4 days, day 8, ESI/MS, FIG. 6
Description: FIG. 5. Effects of siRNAs directed against iPLA2β or iPLA2γ on TAG accumulation during 3T3-L1 cell differentiation. 3T3-L1 cells were cultured and transfected with 20 nM negative control siRNA, siRNA directed against iPLA2β, or siRNA directed against iPLA2γ prior to induction to differentiation as described in “Test Procedures.” 3T3-L1 cells were grown to day 8 and the cell monolayer was washed with ice-cold PBS and scraped into 1 mL 50 mM LiCl. The lipids were extracted by the method of Bligh-Dyer^(33) in the presence of an internal standard (Tril7:0TAG, 200 nmol/mg protein). Mass spectral analysis of TAG was performed by ESI/MS as described in “Test Procedures.” ESI/MS spectra of TAG of day 8 3T3-L1 cells with pretreatment of negative control siRNA (A), siRNA directed against iPLA2β (B) or siRNA directed against iPLA2γ (C) were shown. The results of TAG quantification (D) represent means ±S.E.M. of at least three independent cultures.
FIG. 6. Effects of BELs on TAG accumulation during hormone-induced differentiation of 3T3-L1 cells. 3T3-L1 cells on two days post confluent were washed three times with DMEM, incubated at 37° C. for 20 min in DMEM with 0, 5, 10 μM racemic, R-, or S-BEL. The cells were induced to differentiate as described in “Test Procedures” in the presence of indicated concentrations of BELs for 4 days. […]

iPLA2γ = target: T1, iPLA2γ (Homo sapiens, UniProt Q9NP80); details: previously demonstrated; cited from earlier work
T1 sequence (Q9NP80 1-782): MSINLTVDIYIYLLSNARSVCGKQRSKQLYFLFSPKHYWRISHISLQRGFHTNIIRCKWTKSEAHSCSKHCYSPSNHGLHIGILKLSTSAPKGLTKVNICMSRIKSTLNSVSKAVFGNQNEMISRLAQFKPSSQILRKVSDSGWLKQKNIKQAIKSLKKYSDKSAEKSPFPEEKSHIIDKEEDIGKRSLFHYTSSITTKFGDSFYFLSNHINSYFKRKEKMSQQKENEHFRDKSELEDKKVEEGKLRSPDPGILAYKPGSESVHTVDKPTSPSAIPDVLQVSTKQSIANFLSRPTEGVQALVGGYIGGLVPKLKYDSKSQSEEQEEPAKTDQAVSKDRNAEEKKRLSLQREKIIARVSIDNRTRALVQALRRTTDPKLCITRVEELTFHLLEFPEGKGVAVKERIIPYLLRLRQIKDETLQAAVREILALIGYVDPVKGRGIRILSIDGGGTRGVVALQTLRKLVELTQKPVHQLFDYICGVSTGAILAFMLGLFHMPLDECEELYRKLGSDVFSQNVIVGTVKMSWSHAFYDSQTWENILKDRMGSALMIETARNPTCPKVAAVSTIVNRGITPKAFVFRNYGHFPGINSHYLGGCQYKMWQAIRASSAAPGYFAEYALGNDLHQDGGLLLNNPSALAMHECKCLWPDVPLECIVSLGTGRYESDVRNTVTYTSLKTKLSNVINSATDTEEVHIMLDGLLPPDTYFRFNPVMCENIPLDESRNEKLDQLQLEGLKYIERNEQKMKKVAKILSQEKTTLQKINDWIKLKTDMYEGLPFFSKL

iPLA2β = target: T2, iPLA2β (Homo sapiens, UniProt O60733); details: previously demonstrated; cited from earlier work
T2 sequence (O60733 1-806): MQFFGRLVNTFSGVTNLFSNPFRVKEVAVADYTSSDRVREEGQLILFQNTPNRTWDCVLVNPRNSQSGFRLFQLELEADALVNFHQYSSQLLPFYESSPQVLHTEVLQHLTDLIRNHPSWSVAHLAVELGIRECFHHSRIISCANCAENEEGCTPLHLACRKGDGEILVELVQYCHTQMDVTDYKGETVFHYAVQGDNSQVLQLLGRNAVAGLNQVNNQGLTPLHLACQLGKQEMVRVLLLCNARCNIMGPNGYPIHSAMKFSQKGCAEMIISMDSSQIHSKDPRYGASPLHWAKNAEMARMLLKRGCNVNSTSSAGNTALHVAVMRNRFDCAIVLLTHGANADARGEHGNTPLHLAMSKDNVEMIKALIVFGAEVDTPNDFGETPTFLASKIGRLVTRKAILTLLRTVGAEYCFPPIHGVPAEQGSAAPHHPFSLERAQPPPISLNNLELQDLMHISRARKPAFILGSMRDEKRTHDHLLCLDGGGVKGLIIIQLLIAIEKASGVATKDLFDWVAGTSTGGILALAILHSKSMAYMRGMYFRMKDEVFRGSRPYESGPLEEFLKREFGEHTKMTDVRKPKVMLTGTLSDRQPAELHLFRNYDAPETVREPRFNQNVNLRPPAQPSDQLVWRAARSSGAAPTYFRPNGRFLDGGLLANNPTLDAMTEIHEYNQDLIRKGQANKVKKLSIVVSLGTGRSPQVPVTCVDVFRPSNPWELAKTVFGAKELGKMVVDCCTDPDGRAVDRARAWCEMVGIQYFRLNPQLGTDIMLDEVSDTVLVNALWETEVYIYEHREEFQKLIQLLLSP

Row | SMILES | inhibition of measured iPLA2 activity in 3T3-L1 adipocyte homogenate (iPLA2) | adipocyte differentiation (TAG accumulation) with BEL (3T3-L1 cells) | selectivity for iPLA2γ (iPLA2γ) | selectivity for iPLA2β in comparison to iPLA2γ (iPLA2β)
1 | O=C1O/C(=C/Br)CC[C@@H]1c1cccc2ccccc12 [(R)-BEL] | inhibited to similar levels | substantially decreased | approximately an order of magnitude | 
2 | O=C1O/C(=C/Br)CC[C@H]1c1cccc2ccccc12 [(S)-BEL] | inhibited to similar levels | substantially decreased |  | approximately one order of magnitude
3 | O=C1O/C(=C/Br)CCC1c1cccc2ccccc12 (racemic) [racemic BEL] | inhibited |  |  | 
